36 compounds from patent US20060063784A1, “Method of using substituted pyrazolo [1,5-a] pyrimidines” (priority 2004, published 2006) can be followed below.

Each structure is given as a SMILES string.

The test system of the first assay is 80S14 (p21-deficient) cells. Nature of the assay: Cytotoxicity assay using isogenic cell lines: IC50 in 80S14 (p21-deficient) cells, SRB. As to conditions: 80S14 (p21-deficient) cells, 5 days, SRB; class symbols; read-out: IC50 for 80S14. Type of assay: cell-based, human. The method in brief: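 80S14 (p21-deficient) cells seeded at 12,000 cells/well overnight, then exposed 5 days at 37 °C to serial dilutions (5 pM–50 μM or 170 pg/ml–10 μg/ml). TCA-fixed, sulforhodamine B-stained, absorbance at 560 nm; IC50 taken from cytotoxicity curves versus untreated controls.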
Consider `C#CCN(C(=O)C1CC1)c1cccc(-c2ccnc3c(C(=O)OCC)cnn23)c1` [Example 258, Ethyl 7-[3-[(cyclopropylcarbonyl)-2-propynylamino]phenyl]-pyrazolo[1,5-a]pyrimidine-3-carboxylic acid], for which the IC50 was in the range of 10 to 50 µM.

The same assay, now with this note: 80S14 p21-deficient cells, 5 days incubation, SRB; read-out: IC50 for 80SI4.
In the case of `CCCCCC(=O)Nc1cccc(-c2ccnc3c(C(=O)c4cccs4)cnn23)c1` [Example 153], the IC50 was below 1 µM.

Take `CN(C)CC(=O)Nc1cccc(-c2ccnc3c(C(=O)c4cccs4)cnn23)c1` [Example 64, N-2-N-2-dimethyl-N-1-{3-[3-(thien-2-ylcarbonyl)pyrazolo[1,5-a]pyrimidin-7-yl]phenyl}glycinamide]: the concentration for half-maximal inhibition (IC50) lay in the range of 1 to 10 µM.

Regarding `O=C(Cc1cccs1)Nc1cccc(-c2ccnc3c(C(=O)c4cccs4)cnn23)c1` [Example 66], the IC50 was below 1 µM.

The same assay, now with this note: Homo sapiens, 80S14, 120 h, read-out: IC50 for 80S14 (uM).
For the compound `CC(C)(C)C(=O)Nc1cccc(-c2ccnc3c(C(=O)c4ccco4)cnn23)c1` [Example 243, N-[3-[3-(2-Furanylcarbonyl)pyrazolo-[1,5-a]pyrimidin-7-yl]phenyl}-2,2-dimethyl-propanamide], the IC50 was 1 to 10 µM.

Regarding `CC(=O)Nc1cccc(-c2ccnc3c(C(=O)c4cccs4)cnn23)c1` [Example 250, N-[3-[3-(2-Thienylcarbonyl)pyrazolo[1,5-a]pyrimidin-7-yl]phenyl}-acetamide], the IC50 is 1 to 10 µM.

Turning to `CC(C)(C)C(=O)Nc1cccc(-c2ccnc3c(C(=O)c4ccccc4)cnn23)c1` [Example 242, N-[3-(3-Benzoylpyrazolo[1,5-a]-pyrimidin-7-yl)phenyl]-2,2-dimethyl-propanamide], the IC50 is 1 to 10 µM.

Turning to `CCC(=O)Nc1cccc(-c2ccnc3c(C(=O)c4cccs4)cnn23)c1` [Example 251, N-[3-[3-(2-Thienylcarbonyl)pyrazolo[1,5-a]pyrimidin-7-yl]phenyl}-propanamide], the IC50 was below 1 µM.

The assay is the same for the next values; noted with them: Homo sapiens, 80S14, 120 h, read-out: IC50 for 80SI4 (uM).
Take `CC(C)OC(=O)Nc1cccc(-c2ccnc3c(C(=O)c4cccs4)cnn23)c1` [Example 15, isopropyl 3-[3-(thien-2-ylcarbonyl)pyrazolo[1,5-a]pyrimidin-7-yl]phenylcarbamate]: the half-inhibitory concentration (IC50) is below 1 µM.

For the compound `C#CCCOC(=O)Nc1cccc(-c2ccnc3c(C(=O)c4cccs4)cnn23)c1` [Example 193, but-3-ynyl 3-[3-(thien-2-ylcarbonyl)pyrazolo[1,5-a]pyrimidin-7-yl]phenylcarbamate], the half-maximal inhibitory concentration (IC50) is below 1 µM.

`CC(C)COC(=O)Nc1cccc(-c2ccnc3c(C(=O)c4cccs4)cnn23)c1` [Example 16, isobutyl 3-[3-(thien-2-ylcarbonyl)pyrazolo[1,5-a]pyrimidin-7-yl]phenylcarbamate]: the half-inhibitory concentration (IC50) is below 1 µM.

The assay is the same for the next values; noted with them: Homo sapiens, 120 h; 80S14 (p21-deficient) cells, 5 days, SRB; class symbols; read-out: IC50 for 80S14.
Turning to `COc1ccc(-c2ccnc3c(C(=O)c4cccs4)cnn23)cc1NC(=O)NC(C)C` [Example 323, N-Isopropyl-N′-{2-methoxy-5-[3-(2-thienylcarbonyl)pyrazolo[1,5-a]pyrimidin-7-yl]phenyl}urea], the concentration for half-maximal inhibition (IC50) was 1 to 10 µM.

Take `O=C(c1cccs1)c1cnn2c(-c3cc([N+](=O)[O-])ccc3Cl)ccnc12` [Example 336, [7-(2-Chloro-5-nitrophenyl)pyrazolo[1,5-a]pyrimidin-3-yl](thien-2-yl)methanone]: the IC50 was in the range of 10 to 50 µM.

With `CCN(C(=O)C1CC1)c1cccc(-c2ccnc3c(Cl)cnn23)c1` [Example 255, N-[3-(3-Chloropyrazolo[1,5-a]pyrimidin-7-yl)phenyl]-N-ethyl-cyclopropanecarboxamide], the 50% inhibitory concentration (IC50) is 10 to 50 µM.

For `Cc1cc(-c2cccc(NC(=O)C3CCC3)c2)n2ncc(C(=O)c3cccs3)c2n1` [Example 279, N-{3-[5-Methyl-3-(2-thienylcarbonyl)pyrazolo[1,5-a]pyrimidin-7-yl]phenyl}cyclobutanecarboxamide], the IC50 was below 1 µM.

In the case of `O=C(Nc1ccccc1)c1cccc(-c2ccnc3c(C(=O)c4cccs4)cnn23)c1` [Example 321, N-Phenyl-3-[3-(2-thienylcarbonyl)pyrazolo[1,5-a]pyrimidin-7-yl]benzamide], the IC50 was below 1 µM.

As to `CN1CCN(Cc2ccc(-c3cccc(-c4ccnc5c(C(=O)c6cccs6)cnn45)c3)cc2)CC1` [Example 460, (7-{4′-[(4-Methylpiperazin-1-yl)methyl]-1,1′-biphenyl-3-yl}pyrazolo[1,5-a]pyrimidin-3-yl)(thien-2-yl)methanone], the 50% inhibitory concentration (IC50) was below 1 µM.

On to `C/C(=C\c1ccccc1)CNc1cccc(-c2ccnc3c(C(=O)c4cccs4)cnn23)c1` [Example 397, [7-(3-{[(2E)-2-Methyl-3-phenylprop-2-enyl]amino}phenyl)pyrazolo[1,5-a]pyrimidin-3-yl] (thien-2-yl)methanone], for which the IC50 lay in the range of 10 to 50 µM.

As to `O=C(Nc1cccc(-c2ccnc3c(C(=O)c4cccs4)cnn23)c1)OCc1ccncc1` [Example 416, Pyridin-4-ylmethyl 3-[3-(thien-2-ylcarbonyl)pyrazolo[1,5-a]pyrimidin-7-yl]phenylcarbamate], the half-inhibitory concentration (IC50) was below 1 µM.

Take `Nc1cccc(-c2ccnc3c(Br)cnn23)c1` [Example 326, 3-(3-Bromopyrazolo[1,5-a]pyrimidin-7-yl)aniline]: the IC50 was in the range of 10 to 50 µM.

For `CCCCCC/C(=C\c1ccccc1)CNc1cccc(-c2ccnc3c(C(=O)c4cccs4)cnn23)c1` [Example 409, [7-(3-{[(2E)-2-Hexyl-3-phenylprop-2-enyl]amino}phenyl)pyrazolo[1,5-a]pyrimidin-3-yl] (thien-2-yl)methanone], the IC50 is 10 to 50 µM.

On to `O=C(c1cccs1)c1cnn2c(-c3cccc(OC4CCCC4)c3)ccnc12` [Example 265, [7-[3-(Cyclopentyloxy)phenyl]pyrazolo[1,5-a]pyrimidin-3-yl]-2-thienyl-methanone], for which the concentration for half-maximal inhibition (IC50) is 1 to 10 µM.

`O=C(Nc1cccc(-c2ccnc3c(C(=O)c4cccs4)cnn23)c1)c1ccc(Cl)cc1Cl` [Example 289, 2,4-Dichloro-N-{3-[3-(2-thienylcarbonyl)pyrazolo[1,5-a]pyrimidin-7-yl]phenyl}benzamide]: the IC50 fell in the range of 1 to 10 µM.

For the compound `Cc1cc(C)cc(-c2cnn3c(-c4cccc(-c5nnn(CCN6CCCCC6)n5)c4)ccnc23)c1` [Example 499, 3-(3,5-Dimethylphenyl)-7-{3-[2-(2-piperidin-1-ylethyl)-2H-tetrazol-5-yl]phenyl}pyrazolo[1,5-a]pyrimidine], the half-maximal inhibitory concentration (IC50) is 1 to 10 µM.

The same assay, now with this note: Homo sapiens, 120 h; 80S14 p21-deficient cells, 5 days incubation, SRB; read-out: IC50 for 80SI4.
On to `C=CCC(C)OC(=O)Nc1cccc(-c2ccnc3c(C(=O)c4cccs4)cnn23)c1` (stereo not drawn) [Example 189, 1-methylbut-3-enyl 3-[3-(thien-2-ylcarbonyl)pyrazolo[1,5-a]pyrimidin-7-yl]phenylcarbamate], for which the concentration for half-maximal inhibition (IC50) is below 1 µM.

Turning to `O=C(Nc1cccc(-c2ccnc3c(C(=O)c4cccs4)cnn23)c1)c1ccc(F)c(F)c1` [Example 102, 3,4-difluoro-N-{3-[3-(thien-2-ylcarbonyl)pyrazolo[1,5-a]pyrimidin-7-yl]phenyl}benzamide], the IC50 lay within 1 to 10 µM.

Consider `CCCCC(CC)C(=O)Nc1cccc(-c2ccnc3c(C(=O)c4cccs4)cnn23)c1` (stereo not drawn) [Example 147, 2-ethyl-N-{3-[3-(thien-2-ylcarbonyl)pyrazolo[1,5-a]pyrimidin-7-yl}phenyl}hexanamide], for which the IC50 lay in the range of 1 to 10 µM.

Regarding `COc1ccc(OC)c(CC(=O)Nc2cccc(-c3ccnc4c(C(=O)c5cccs5)cnn34)c2)c1` [Example 110, 2-(2,5-dimethoxyphenyl)-N-{3-[3-(thien-2-ylcarbonyl)pyrazolo[1,5-a]pyrimidin-7-yl]phenyl}acetamide], the concentration for half-maximal inhibition (IC50) was in the range of 1 to 10 µM.

Consider `O=C(CNC(=O)C1CC1)Nc1cccc(-c2ccnc3c(C(=O)c4cccs4)cnn23)c1` [Example 126, N-[2-oxo-2-({3-[3-(thien-2-ylcarbonyl)pyrazolo[1,5-a]pyrimidin-7-yl]phenyl}amino)ethyl]cyclopropanecarboxamide], for which the IC50 lay in the range of 10 to 50 µM.

Take `CCC(C)C(=O)NCC(=O)Nc1cccc(-c2ccnc3c(C(=O)c4cccs4)cnn23)c1` (stereo not drawn) [Example 130, 2-methyl-N-[2-oxo-2-({3-[3-(thien-2-ylcarbonyl)pyrazolo[1,5-a]pyrimidin-7-yl]phenyl}amino)ethyl]butanamide]: the 50% inhibitory concentration (IC50) was in the range of 10 to 50 µM.

Turning to `O=C(Nc1cccc(-c2ccnc3c(C(=O)c4cccs4)cnn23)c1)c1ccc2ccccc2c1` [Example 104, N-{3-[3-(thien-2-ylcarbonyl)pyrazolo[1,5-a]pyrimidin-7-yl]phenyl}-2-naphthamide], the 50% inhibitory concentration (IC50) is 10 to 50 µM.

For `O=C(CNC(=O)c1ccccc1)Nc1cccc(-c2ccnc3c(C(=O)c4cccs4)cnn23)c1` [Example 135, N-[2-oxo-2-({3-[3-(thien-2-ylcarbonyl)pyrazolo[1,5-a]pyrimidin-7-yl]phenyl]amino)ethyl]benzamide], the concentration for half-maximal inhibition (IC50) fell in the range of 1 to 10 µM.

For `COC(=O)[C@@H](NC(=O)Nc1cccc(-c2ccnc3c(C(=O)c4cccs4)cnn23)c1)C(C)C` [Example 4, methyl N-[({3-[3-(thien-2-ylcarbonyl)pyrazolo[1,5-a]pyrimidin-7-yl]phenyl}amino)carbonyl]-L-valinate], the 50% inhibitory concentration (IC50) is below 1 µM.

Turning to `O=C(Nc1cccc(-c2ccnc3c(C(=O)c4cccs4)cnn23)c1)c1ccc(Cl)c(Cl)c1` [Example 100, 3,4-dichloro-N-{3-[3-(thien-2-ylcarbonyl)pyrazolo[1,5-a]pyrimidin-7-yl]phenyl}benzamide], the IC50 lay in the range of 10 to 50 µM.

`CCCCCCOC(=O)NCC(=O)Nc1cccc(-c2ccnc3c(C(=O)c4cccs4)cnn23)c1` [Example 122, hexyl 2-oxo-2-({3-[3-(thien-2-ylcarbonyl)pyrazolo[1,5-a]pyrimidin-7-yl]phenyl}amino)ethylcarbamate]: the IC50 is 1 to 10 µM.

Take `Cc1ccc(C(=O)Nc2cccc(-c3ccnc4c(C(=O)c5cccs5)cnn34)c2)cc1` [Example 87, 4-methyl-N-{3-[3-(thien-2-ylcarbonyl)pyrazolo[1,5-a]pyrimidin-7-yl]phenyl]benzamide]: the concentration for half-maximal inhibition (IC50) is below 1 µM.
